The test system of one series is RKMs. Nature of the series: Kinetics of N-hydap glucuronidation in RKMs. It is filed as in vitro ADME, rat. Conditions: RKM. On the procedure: In this study, the rats were executed by drawing blood from the abdominal aorta and mice were sacrificed with cervical dislocation before the liver and kidneys were excised. The liver and kidneys were removed, and washed with chilled cleansing solution (contains 8 mM KH2PO4, 5.6 mM EDTA·K2·2H2O, 1 mM DTT and 229.6 μM PMSF), homogenized in a tissue homogenate buffer with a pH of 7.4, (consisting of […], 8 mM K2HPO4, 250 mM sucrose, 1 mM EDTA·K2·2H2O and 229.6 μM PMSF). Subsequently, the homogenate was centrifuged at 10,400 rpm at 4 °C for 15 min, and the supernatant was then centrifuged at 35,000 rpm at 4 °C for 60 min. A 250 mM sucrose buffer was added to the pellet to reconstitute and the resuspension was stored at − 80 °C until use. Microsome protein concentrations were measured by Omni-Easy™ Instant BCA Protein Assay Kit.
Various microsomes including HLMs, HKMs, HIMs, RLMs, RKMs, MLMs and MKMs were involved in CYP and UGT reactions of N-hydap. […]
The substrate concentrations used for HLMs were 0.05, 0.5, 2, 2.5, 5, 10, 25, 50, and 100 μM. […] The rates of N-hydap-G by enzymes were expressed as nmol/mg/min, representing the amount of metabolites formed per minute per milligram of protein. Kinetic parameters were determined by analyzing the Eadie–Hofstee plots. […]

The subject of another series is Ugt1a9. Nature of the series: Real-time PCR mRNA level after 7 days gavage: Ugt1a9. It is filed as in vivo, mice. More on the design: key to UGT1A9 mNA expression: ↑: up-regulation; ↓: down-regulation; –: no change. On the procedure:
Mice were randomly divided into four groups, with eight animals in each group. The mice received oral pretreatment with N-hydap for 7 days at doses of 2, 5, and 10 mg/kg/day, which were considered as the low dose, medium dose, and high dose, respectively. Correspondingly, the control group received PBS. On the 8th day, the liver and kidneys were removed, and organs from eight mice per group were combined to prepare MLMs and MKMs using the detailed procedures above. Subsequently, we determined the activity of CYP and UGT enzymes by specific substrate metabolized with MLMs (0.5 mg/mL) and MKMs (0.2 mg/mL) in vitro. Specifically, the following selective substrates were used for the respective enzymes: PH (1 μM) for CYP1A2, DIC (1 μM) for CYP2C9, MP (90 μM) for CYP2C19, DM (1 μM) for CYP2D6, CZX (10 μM) for CYP2E1, Tes (1 μM) for CYP3A4, SN38 (1 μM) for UGT1A1, CACD (100 μM) for UGT1A3, Sero (20 μM) for UGT1A6, and Prop (1 μM) for UGT1A9. All substrates were dissolved in methanol or DMSO. The incubation procedure was carried out as mentioned above, and the reaction was terminated with VER (20 ng/mL) in ESI+ mode and CLP (200 ng/mL) in ESI− mode. In the ex vivo experiments, the activity of enzymes was measured by quantifying the production of various metabolites (nM/mg protein/min). The metabolites and their corresponding enzymes are as follows: APAP from PH, 4-OH-DIC from DIC, 4-OH-MP from MP, DXO from DM, 6-OH-CZX from CZX, 6-OH-Tes from Tes, SN38-G from SN38, CACD-G from CACD, Sero-G from Sero, Prop-G from Prop. The measurements were performed using multiple reaction monitoring (MRM) transitions, which are specific mass spectrometry transitions used for quantification. […]
Total RNA from liver and kidney samples taken after 7 days of N-hydap gavage was extracted using the Animal Total RNA Isolation Kit (Foregene, Chengdu, Sichuan, China) following the manufacturer’s instructions. The concentrations of total RNA were determined by a nucleic acid concentration tester at 260/280 nm. […]

A word on the Km: it is the concentration of substrate that gives half-maximal velocity. `CC1CCC2C(C=CC(C)C2C(=O)c2c(O)c(C3(O)CCC(O)C4OC43)cn(O)c2=O)C1` (stereo not shown) [N-hydap, N-Hydroxyapiosporamide]: in the series on RKMs, the Km is 125 µM. Moreover, the “UGT1A9 mNA expression” value in the series on Ugt1a9 (Kidney) and in the series on Ugt1a9 (Liver) was “–” in each case. In addition, the “mRNA levels of Ugt1a9” value in the series with Ugt1a9 (mice, 2, 5, 10 mg/kg p.o. 7 days) is reported as “No significant changes”.
